Test results from ChEMBL document CHEMBL1135003, “Synthesis of aglycon analogues of sarmentosin and their bioactivity of lymphocyte proliferation” (2002).

What was measured:
Format in all cases: functional
[1] = In vitro effect on the proliferation of B lymphocytes of mouse splenocytes at 0.2 umol/L to show the antibody formation by [3H]thymidine incorporation
[2] = In vitro effect on the proliferation of B lymphocytes of mouse splenocytes at 2.0 umol/L to show the antibody formation by [3H]thymidine incorporation
[3] = In vitro effect on the proliferation of B lymphocytes of mouse splenocytes at 20 umol/L to show the antibody formation by [3H]thymidine incorporation
[4] = In vitro effect on the proliferation of T lymphocytes of mouse splenocytes at 20 umol/L to show the cell-mediated immunity by [3H]thymidine incorporation
[5] = In vitro effect on the proliferation of T lymphocytes of mouse splenocytes at 0.2 umol/L to show the cell-mediated immunity by [3H]thymidine incorporation
[6] = In vitro effect on the proliferation of T lymphocytes of mouse splenocytes at 2 umol/L to show the cell-mediated immunity by [3H]thymidine incorporation

N#C/C(=C\COC(=O)/C=C/c1ccccc1)CO
Activity [1]: 96% | Activity [2]: 69% | Activity [3]: 20% | Activity [4]: 38% | Activity [5]: 80% | Activity [6]: 62%

N#C/C(=C\COC(=O)c1ccccc1)CO
Activity [1]: 137% | Activity [2]: 73% | Activity [3]: 67% | Activity [4]: 23% | Activity [5]: 97% | Activity [6]: 68%

COc1ccc(C(=O)OC/C=C(\C#N)CO)cc1
Activity [1]: 109% | Activity [2]: 86% | Activity [3]: 31% | Activity [4]: 25% | Activity [5]: 100% | Activity [6]: 63%

COc1ccc(OC/C=C(\C#N)CO)cc1
Activity [1]: 81% | Activity [2]: 77% | Activity [3]: 79% | Activity [4]: 80% | Activity [5]: 101% | Activity [6]: 114%

COc1ccc(COC/C=C(\C#N)CO)cc1
Activity [1]: 169% | Activity [2]: 71% | Activity [3]: 38% | Activity [4]: 37% | Activity [5]: 93% | Activity [6]: 54%

N#C/C(=C\COC(=O)c1ccc(Cl)cc1Cl)CO
Activity [1]: 68% | Activity [2]: 69% | Activity [3]: 73% | Activity [4]: 131% | Activity [5]: 119% | Activity [6]: 94%

N#C/C(=C\COc1ccccc1)CO
Activity [1]: 51% | Activity [2]: 48% | Activity [3]: 45% | Activity [4]: 131% | Activity [5]: 100% | Activity [6]: 113%

N#C/C(=C\COC(=O)c1ccc(F)cc1Cl)CO
Activity [1]: 151% | Activity [2]: 151% | Activity [3]: 113% | Activity [4]: 29% | Activity [5]: 123% | Activity [6]: 98%
